# Data from ChEMBL document CHEMBL1137033, “Novel bisbenzamidines as potential drug candidates for the treatment of Pneumocystis carinii pneumonia” (Bioorg Med Chem Lett, 2004).
# Legend:
# Pneumocystis carinii = assay: inhibitory concentration against Pneumocystis carinii; type: functional, organism-based
# A549 = assay: Cytotoxicity against A549 cell line; type: functional, cell-based; conditions: Homo sapiens
SMILES,IC50 (Pneumocystis carinii),IC50 (A549)
N=C(N)c1ccc(OCc2ccccc2COc2ccc(C(=N)N)cc2)cc1,1400 nM,33100 nM
N=C(N)c1ccc(COc2ccccc2OCc2ccc(C(=N)N)cc2)cc1,1300 nM,44100 nM
N=C(N)c1ccc(OCc2ccc(COc3ccc(C(=N)N)cc3)cc2)cc1,1300 nM,30200 nM
N=C(N)c1ccc(OC(=O)c2ccc(C(=O)Oc3ccc(C(=N)N)cc3)cc2)cc1 [BIS(4-CARBAMIMIDOYLPHENYL)TEREPHTHALATE],13400 nM,121000 nM

# Stronger by IC50 (Pneumocystis carinii), values ahead:
IC50 (Pneumocystis carinii),SMILES,IC50 (A549)
500 nM,N=C(N)c1ccc(OCCCCCOc2ccc(C(=N)N)cc2)cc1 [PENTAMIDINE],24000 nM
3 nM,N=C(N)c1ccc(NC(=O)CCCC(=O)Nc2ccc(C(=N)N)cc2)cc1,> 300 nM
2 nM,N=C(N)c1ccc(NC(=O)CCCCC(=O)Nc2ccc(C(=N)N)cc2)cc1,> 200 nM
